Experimental data as given in ChEMBL document CHEMBL3779783, “Short cationic lipopeptides as effective antibacterial agents: Design, physicochemical properties and biological evaluation” (Bioorg Med Chem, 2016).
Converted amounts (≈) assume the structure as drawn. The source made the active and inactive calls. The rule behind the calls is not given here. Non-standard residues stand in square brackets, D forms with d. Residues, ends and D or L forms follow the SMILES beside them. Groups on a side chain read outwards from the residue. ξ: configuration not given here. ξGly(decyl) = CCCCCCCCCCC(N)C(=O)O

Assays:
[1] = test system: Pseudomonas aeruginosa; assay: Antimicrobial activity against Pseudomonas aeruginosa ATCC 27853 after 20 hrs by microdilution assay; format: functional; settings: ATCC 27853, 20 h
[2] = test system: Klebsiella pneumoniae; assay: Antimicrobial activity against multidrug resistant Klebsiella pneumoniae ATCC 700603 after 20 hrs by microdilution assay; format: functional; settings: Klebsiella pneumoniae, 700603, 20 h
[3] = test system: Klebsiella pneumoniae; assay: Antimicrobial activity against NDM-1 positive Klebsiella pneumoniae BAA-2146 after 20 hrs by microdilution assay; format: functional; settings: ATCC BAA-2146, 20 h
[4] = test system: Staphylococcus aureus; assay: Antimicrobial activity against clinical isolates of multi-resistant/methicillin-resistant Staphylococcus aureus after 20 hrs by microdilution assay; format: functional
[5] = test system: Staphylococcus aureus; assay: Antimicrobial activity against vancomycin-resistant Staphylococcus aureus NARSA VRS10 after 20 hrs by microdilution assay; format: functional; settings: NARSA VRS10, 20 h
[6] = test system: Staphylococcus aureus; assay: Antimicrobial activity against vancomycin-resistant Staphylococcus aureus NARSA VRS4 after 20 hrs by microdilution assay; format: functional; settings: NARSA VRS4, 20 h
[7] = test system: Enterococcus faecium; assay: Antimicrobial activity against multidrug resistant and high level vancomycin resistant Enterococcus faecium ATCC 51559 after 20 hrs by microdilution assay; format: functional; settings: ATCC 51559, 20 h
[8] = test system: Staphylococcus aureus; assay: Antimicrobial activity against clinical isolates of methicillin-resistant Staphylococcus aureus after 20 hrs by microdilution assay; format: functional
[9] = test system: Staphylococcus aureus; assay: Antimicrobial activity against vancomycin-resistant Staphylococcus aureus NARSA VRS1 after 20 hrs by microdilution assay; format: functional; settings: NARSA VRS1, 20 h
[10] = test system: Staphylococcus aureus; assay: Antimicrobial activity against glycopeptide-intermediate Staphylococcus aureus NRS17 after 20 hrs by microdilution assay; format: functional; settings: NRS17, 20 h
[11] = test system: Staphylococcus aureus; assay: Antimicrobial activity against methicillin-resistant Staphylococcus aureus ATCC 43300 after 20 hrs by microdilution assay; format: functional; settings: ATCC 43300, 20 h
[12] = test system: Staphylococcus aureus; assay: Antimicrobial activity against glycopeptide-intermediate Staphylococcus aureus NRS1 after 20 hrs by microdilution assay; format: functional; settings: NRS1, 20 h
[13] = test system: Escherichia coli; assay: Antimicrobial activity against Escherichia coli ATCC 25922 after 20 hrs by microdilution assay; format: functional; settings: ATCC 25922, 20 h
[14] = test system: Acinetobacter baumannii; assay: Antimicrobial activity against Acinetobacter baumannii […] after 20 hrs by microdilution assay; format: functional
[15] = test system: Staphylococcus aureus; assay: Antimicrobial activity against methicillin-susceptible Staphylococcus aureus ATCC 25923 after 20 hrs by microdilution assay; format: functional; settings: ATCC 25923, 20 h
[16] = test system: Klebsiella pneumoniae; assay: Antimicrobial activity against Klebsiella pneumoniae ATCC 13883 after 20 hrs by microdilution assay; format: functional; settings: ATCC 13883, 20 h
[17] = Cytotoxicity against HEK293 cells after 24 hrs by MTT assay; format: cell-based; settings: human
[18] = Cytotoxicity against human HepG2 cells after 24 hrs by MTT assay; format: cell-based
[19] = test system: Streptococcus pneumoniae; assay: Antimicrobial activity against multidrug resistant Streptococcus pneumoniae ATCC 700677 after 20 hrs by microdilution assay; format: functional; settings: ATCC 700677, 20 h
[20] = test system: Enterococcus faecalis; assay: Antimicrobial activity against clinical isolates of high level vancomycin-resistant Enterococcus faecalis after 20 hrs by microdilution assay; format: functional
[21] = test system: Pseudomonas aeruginosa; assay: Antimicrobial activity against Pseudomonas aeruginosa ATCC 27853 after 24 hrs by M7-A7 method; format: functional; settings: ATCC 27853, 24 h
[22] = test system: Klebsiella pneumoniae; assay: Antimicrobial activity against NDM-1 positive Klebsiella pneumoniae BAA-2146 after 24 hrs by M7-A7 method; format: functional; settings: ATCC BAA-2146, 24 h
[23] = test system: Streptococcus pneumoniae; assay: Antimicrobial activity against multidrug resistant Streptococcus pneumoniae ATCC 700677 after 24 hrs by M7-A7 method; format: functional; settings: ATCC 700677, 24 h
[24] = test system: Staphylococcus aureus; assay: Antimicrobial activity against glycopeptide-intermediate Staphylococcus aureus NRS1 after 24 hrs by M7-A7 method; format: functional; settings: NRS1, 24 h
[25] = test system: Staphylococcus aureus; assay: Antimicrobial activity against clinical isolates of multi-resistant/methicillin-resistant Staphylococcus aureus after 24 hrs by M7-A7 method; format: functional
[26] = test system: Staphylococcus aureus; assay: Antimicrobial activity against methicillin-resistant Staphylococcus aureus ATCC 43300 after 24 hrs by M7-A7 method; format: functional; settings: ATCC 43300, 24 h
[27] = test system: Staphylococcus aureus; assay: Antimicrobial activity against glycopeptide-intermediate Staphylococcus aureus NRS17 after 24 hrs by M7-A7 method; format: functional; settings: NRS17, 24 h
[28] = test system: Staphylococcus aureus; assay: Antimicrobial activity against vancomycin-resistant Staphylococcus aureus NARSA VRS1 after 24 hrs by M7-A7 method; format: functional; settings: NARSA VRS1, 24 h
[29] = test system: Staphylococcus aureus; assay: Antimicrobial activity against vancomycin-resistant Staphylococcus aureus NARSA VRS10 after 24 hrs by M7-A7 method; format: functional; settings: NARSA VRS10, 24 h
[30] = test system: Staphylococcus aureus; assay: Antimicrobial activity against methicillin-susceptible Staphylococcus aureus ATCC 25923 assessed as membrane burst at 16 times MIC after 3 hrs by transmission electron microscopic analysis; format: functional, organism-based
[31] = test system: Staphylococcus aureus; assay: Antimicrobial activity against clinical isolates of methicillin-resistant Staphylococcus aureus after 24 hrs by M7-A7 method; format: functional
[32] = test system: Enterococcus faecium; assay: Antimicrobial activity against multidrug resistant and high level vancomycin resistant Enterococcus faecium ATCC 51559 after 24 hrs by M7-A7 method; format: functional; settings: ATCC 51559, 24 h
[33] = test system: Klebsiella pneumoniae; assay: Antimicrobial activity against multidrug resistant Klebsiella pneumoniae ATCC 700603 after 24 hrs by M7-A7 method; format: functional; settings: Klebsiella pneumoniae, 700603, 24 h
[34] = test system: Enterococcus faecalis; assay: Antimicrobial activity against clinical isolates of high level vancomycin-resistant Enterococcus faecalis after 24 hrs by M7-A7 method; format: functional
[35] = test system: Acinetobacter baumannii; assay: Antimicrobial activity against Acinetobacter baumannii […] after 24 hrs by M7-A7 method; format: functional
[36] = test system: Klebsiella pneumoniae; assay: Antimicrobial activity against Klebsiella pneumoniae ATCC 13883 after 24 hrs by M7-A7 method; format: functional; settings: ATCC 13883, 24 h
[37] = test system: Escherichia coli; assay: Antimicrobial activity against Escherichia coli ATCC 25922 after 24 hrs by M7-A7 method; format: functional; settings: ATCC 25922, 24 h
[38] = Metabolic stability in 0.1 M NH4HCO3 buffer at pH 8.16 assessed as trypsin (unknown origin)-mediated compound degradation after 2 to 12 hrs by RP-HPLC method; format: ADME; settings: human
[39] = test system: Staphylococcus aureus; assay: Antimicrobial activity against vancomycin-resistant Staphylococcus aureus NARSA VRS4 after 24 hrs by M7-A7 method; format: functional; settings: NARSA VRS4, 24 h
[40] = test system: Staphylococcus aureus; assay: Antimicrobial activity against methicillin-susceptible Staphylococcus aureus ATCC 25923 assessed as surface blebs at 16 times MIC after 3 hrs by transmission electron microscopic analysis; format: functional, organism-based
[41] = test system: Staphylococcus aureus; assay: Antimicrobial activity against methicillin-susceptible Staphylococcus aureus ATCC 25923 assessed as blister appearance on cell surface at 16 times MIC after 3 hrs by transmission electron microscopic analysis; format: functional, organism-based

SMILES	MIC [1] [µM]	MIC [2] [µM]	MIC [3] [µM]	MIC [4] [µM]	MIC [5] [µM]	MIC [6] [µM]	MIC [7] [µM]	MIC [8] [µM]	MIC [9] [µM]	MIC [10] [µM]	MIC [11] [µM]	MIC [12] [µM]	MIC [13] [µM]	MIC [14] [µM]	MIC [15] [µM]	MIC [16] [µM]	CC50 at 24 h [17] [µM]	CC50 at 24 h [18] [µM]	MIC [19] [µM]	MIC [20] [µM]	other results
CCCCCCCCCCC(NC(=O)C(CCCCN)NC(C)=O)C(N)=O (stereo not drawn)	> 30	> 30	> 30	> 30	> 30	> 30	> 30	> 30	> 30	> 30	> 30	> 30	> 30	> 30	> 30	> 30	> 15	> 15	> 30	30 (≈ 11.5 µg/mL)	–
CCCCCCCCCCC(NC(=O)C(CCCCCCCCCC)NC(=O)C(CCCCN)NC(=O)C(CCCCN)NC(C)=O)C(=O)NC(CCCCNC(C)=O)C(=O)NCC(N)=O (stereo not drawn) (Ac-KK[ξGly(decyl)][ξGly(decyl)]K(Ac)G-NH2; configuration not given here)	–	–	–	–	–	–	–	–	–	–	–	–	–	–	–	–	–	–	–	–	MIC [21]: 7.5 µM (≈ 7.03 µg/mL); MIC [22]: > 15 µM; MIC [23]: 3.8 µM (≈ 3.56 µg/mL); MIC [24]: 1.9 µM (≈ 1.78 µg/mL); MIC [25]: 3.8 µM (≈ 3.56 µg/mL); MIC [26]: 1.9 µM (≈ 1.78 µg/mL); MIC [27]: 2.8 µM (≈ 2.62 µg/mL); MIC [28]: 1.9 µM (≈ 1.78 µg/mL); MIC [29]: 2.8 µM (≈ 2.62 µg/mL); Activity [30]: Active; MIC [31]: 11.3 µM (≈ 10.6 µg/mL); MIC [32]: 2.8 µM (≈ 2.62 µg/mL); MIC [33]: > 15 µM; MIC [34]: 1.9 µM (≈ 1.78 µg/mL); MIC [35]: 7.5 µM (≈ 7.03 µg/mL); MIC [36]: 15 µM (≈ 14.1 µg/mL); MIC [37]: 15 µM (≈ 14.1 µg/mL); Stability [38]: Stable; MIC [39]: 2.8 µM (≈ 2.62 µg/mL)
CCCCCCCCCCC(NC(=O)C(CCCCCCCCCC)NC(=O)C(CCCCNC(=O)C(CCCCN)NC(C)=O)NC(=O)C(CCCCN)NC(C)=O)C(N)=O (stereo not drawn) (Ac-KK([Lys-Ac])[ξGly(decyl)][ξGly(decyl)]-NH2; configuration not given here)	30 (≈ 26.4 µg/mL)	> 30	> 30	2.8 (≈ 2.46 µg/mL)	1.9 (≈ 1.67 µg/mL)	2.8 (≈ 2.46 µg/mL)	0.9 (≈ 0.792 µg/mL)	5.6 (≈ 4.93 µg/mL)	1.9 (≈ 1.67 µg/mL)	7.5 (≈ 6.6 µg/mL)	0.9 (≈ 0.792 µg/mL)	7.5 (≈ 6.6 µg/mL)	> 30	30 (≈ 26.4 µg/mL)	3.75 (≈ 3.3 µg/mL)	> 30	> 15	> 15	2.8 (≈ 2.46 µg/mL)	0.9 (≈ 0.792 µg/mL)	–
CN[C@@H](CC(C)C)C(=O)N[C@H]1C(=O)N[C@@H](CC(N)=O)C(=O)N[C@H]2C(=O)N[C@H]3C(=O)N[C@H](C(=O)N[C@@H](C(=O)O)c4cc(O)cc(O)c4-c4cc3ccc4O)[C@H](O)c3ccc(c(Cl)c3)Oc3cc2cc(c3O[C@H]2O[C@@H](CO)[C@H](O)[C@@H](O)[C@@H]2O[C@@H]2C[C@@](C)(N)[C@@H](O)[C@@H](C)O2)Oc2ccc(cc2Cl)[C@H]1O	–	–	–	1 (≈ 1.45 µg/mL)	> 44	> 44	> 44	5.5 (≈ 7.97 µg/mL)	> 44	2.8 (≈ 4.06 µg/mL)	0.6 (≈ 0.87 µg/mL)	1 (≈ 1.45 µg/mL)	–	–	0.7 (≈ 1.01 µg/mL)	–	–	–	0.7 (≈ 1.01 µg/mL)	> 44	Activity [40]: Active; Activity [41]: Active
